Several values for one entry are separate records, joined by “and”; a condition that tells them apart may be missing. Equal values may be shown once.
How the values were obtained:
Assay in all cases: KINOMEscan competition binding
Conditions in all cases: compound 10.0 µM
[1] = test system: ABL1 (human), P00519 [Y253F]
AKT1 (human) = AKT1 (human) (UniProt P31749)
AURKA (human) = AURKA (human) (UniProt O14965)
BMPR1A (human) = BMPR1A (human) (UniProt P36894)
BMX (human) = BMX (human) (UniProt P51813)
CAMK1 (human) = CAMK1 (human) (UniProt Q14012)
CDK17 (human) = CDK17 (human) (UniProt Q00537)
CDK5 (human) = CDK5 (human) (UniProt Q00535)
CHEK2 (human) = CHEK2 (human) (UniProt O96017)
DDR2 (human) = DDR2 (human) (UniProt Q16832)
EGFR (human) = EGFR (human) (UniProt P00533)
[2] = test system: EGFR (human), P00533 [G719C; 746-750 del]
EPHA1 (human) = EPHA1 (human) (UniProt P21709)
EPHA2 (human) = EPHA2 (human) (UniProt P29317)
FGFR3 (human) = FGFR3 (human) (UniProt P22607)
FLT4 (human) = FLT4 (human) (UniProt P35916)
IRAK3 (human) = IRAK3 (human) (UniProt Q9Y616)
LATS2 (human) = LATS2 (human) (UniProt Q9NRM7)
LYN (human) = LYN (human) (UniProt P07948)
MAP4K1 (human) = MAP4K1 (human) (UniProt Q92918)
MAPK12 (human) = MAPK12 (human) (UniProt P53778)
MAPKAPK2 (human) = MAPKAPK2 (human) (UniProt P49137)
MERTK (human) = MERTK (human) (UniProt Q12866)
NEK9 (human) = NEK9 (human) (UniProt Q8TD19)
PDGFRA (human) = PDGFRA (human) (UniProt P16234)
PDPK1 (human) = PDPK1 (human) (UniProt O15530)
PIK3CA (human) = PIK3CA (human) (UniProt P42336)
PKMYT1 (human) = PKMYT1 (human) (UniProt Q99640)
PKN1 (human) = PKN1 (human) (UniProt Q16512)
PRKCE (human) = PRKCE (human) (UniProt Q02156)
PRKCH (human) = PRKCH (human) (UniProt P24723)
PRKCQ (human) = PRKCQ (human) (UniProt Q04759)
PTK6 (human) = PTK6 (human) (UniProt Q13882)
[3] = test system: RET (human), P07949 [V804M]
ROCK2 (human) = ROCK2 (human) (UniProt O75116)
RPS6KA3 KD1 (human) = RPS6KA3 KD1 (human) (UniProt P51812)
RPS6KA5 KD1 (human) = RPS6KA5 KD1 (human) (UniProt O75582)
STK32B (human) = STK32B (human) (UniProt Q9NY57)
SYK (human) = SYK (human) (UniProt P43405)
TEC (human) = TEC (human) (UniProt P42680)
TIE1 (human) = TIE1 (human) (UniProt P35590)
ZAP70 (human) = ZAP70 (human) (UniProt P43403)

Chain of PKN1 (human) (Q16512 whole entry, looked up): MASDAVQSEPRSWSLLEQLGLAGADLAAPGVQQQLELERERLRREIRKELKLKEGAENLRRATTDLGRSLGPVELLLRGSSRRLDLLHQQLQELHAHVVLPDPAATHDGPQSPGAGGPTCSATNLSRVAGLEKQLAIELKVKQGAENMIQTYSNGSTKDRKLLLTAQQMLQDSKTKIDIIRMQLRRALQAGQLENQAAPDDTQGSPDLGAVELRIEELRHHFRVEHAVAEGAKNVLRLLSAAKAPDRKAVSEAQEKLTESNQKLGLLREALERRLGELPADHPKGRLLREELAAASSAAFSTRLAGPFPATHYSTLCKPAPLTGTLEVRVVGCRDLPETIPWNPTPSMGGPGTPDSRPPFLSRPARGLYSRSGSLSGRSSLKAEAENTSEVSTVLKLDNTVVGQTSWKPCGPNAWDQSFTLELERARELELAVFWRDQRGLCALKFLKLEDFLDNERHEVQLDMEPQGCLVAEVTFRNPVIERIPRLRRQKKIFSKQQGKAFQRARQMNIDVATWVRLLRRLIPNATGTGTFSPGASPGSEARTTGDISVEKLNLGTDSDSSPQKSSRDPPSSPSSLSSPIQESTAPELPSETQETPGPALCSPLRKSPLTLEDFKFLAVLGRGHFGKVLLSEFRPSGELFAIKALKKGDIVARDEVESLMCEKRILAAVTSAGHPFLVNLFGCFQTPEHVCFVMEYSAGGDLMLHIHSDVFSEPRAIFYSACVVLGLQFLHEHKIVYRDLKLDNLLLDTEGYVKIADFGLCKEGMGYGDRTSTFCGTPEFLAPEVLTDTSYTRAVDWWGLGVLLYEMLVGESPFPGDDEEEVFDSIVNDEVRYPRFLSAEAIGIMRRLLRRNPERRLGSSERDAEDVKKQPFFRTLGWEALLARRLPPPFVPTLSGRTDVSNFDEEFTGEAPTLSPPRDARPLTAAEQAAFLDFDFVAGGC
Chain of PTK6 (human) (Q13882 whole entry, looked up): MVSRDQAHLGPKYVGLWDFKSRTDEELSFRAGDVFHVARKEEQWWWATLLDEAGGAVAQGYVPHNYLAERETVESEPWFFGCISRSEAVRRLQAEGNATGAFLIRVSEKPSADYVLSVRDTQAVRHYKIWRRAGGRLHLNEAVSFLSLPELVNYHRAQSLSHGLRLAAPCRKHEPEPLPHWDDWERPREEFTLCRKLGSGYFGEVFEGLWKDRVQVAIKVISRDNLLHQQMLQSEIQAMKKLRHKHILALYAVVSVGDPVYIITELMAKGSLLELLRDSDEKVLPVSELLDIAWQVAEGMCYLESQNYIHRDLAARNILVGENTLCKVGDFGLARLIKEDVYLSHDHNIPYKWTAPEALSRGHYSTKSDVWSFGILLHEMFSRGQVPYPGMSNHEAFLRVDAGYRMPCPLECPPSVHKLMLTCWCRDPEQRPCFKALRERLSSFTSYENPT
Chain of EPHA2 (human) (P29317 whole entry, looked up): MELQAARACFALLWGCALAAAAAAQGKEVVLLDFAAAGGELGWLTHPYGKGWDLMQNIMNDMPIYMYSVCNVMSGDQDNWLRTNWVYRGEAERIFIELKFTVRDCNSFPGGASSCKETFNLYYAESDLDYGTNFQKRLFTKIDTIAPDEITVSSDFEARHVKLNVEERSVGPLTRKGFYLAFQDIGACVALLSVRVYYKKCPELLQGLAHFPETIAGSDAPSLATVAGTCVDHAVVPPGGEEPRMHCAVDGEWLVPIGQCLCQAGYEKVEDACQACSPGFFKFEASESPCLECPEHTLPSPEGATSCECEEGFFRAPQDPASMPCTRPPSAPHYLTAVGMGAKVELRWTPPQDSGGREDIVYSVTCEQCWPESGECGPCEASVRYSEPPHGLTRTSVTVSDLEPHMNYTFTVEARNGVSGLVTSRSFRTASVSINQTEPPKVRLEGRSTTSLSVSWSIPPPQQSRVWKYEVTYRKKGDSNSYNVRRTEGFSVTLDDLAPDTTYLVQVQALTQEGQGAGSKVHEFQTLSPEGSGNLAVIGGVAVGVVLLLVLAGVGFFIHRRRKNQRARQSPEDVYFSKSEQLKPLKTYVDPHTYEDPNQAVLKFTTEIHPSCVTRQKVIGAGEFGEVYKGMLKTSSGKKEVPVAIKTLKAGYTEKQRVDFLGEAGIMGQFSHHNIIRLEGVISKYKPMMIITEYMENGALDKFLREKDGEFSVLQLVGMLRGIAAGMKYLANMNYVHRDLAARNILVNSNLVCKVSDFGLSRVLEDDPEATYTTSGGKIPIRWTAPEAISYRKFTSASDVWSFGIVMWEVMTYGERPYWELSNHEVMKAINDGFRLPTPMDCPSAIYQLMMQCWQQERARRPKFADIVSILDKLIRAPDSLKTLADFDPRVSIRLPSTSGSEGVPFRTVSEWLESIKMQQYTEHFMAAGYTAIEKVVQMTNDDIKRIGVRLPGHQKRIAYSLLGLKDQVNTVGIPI
Chain of EPHA1 (human) (P21709 whole entry, looked up): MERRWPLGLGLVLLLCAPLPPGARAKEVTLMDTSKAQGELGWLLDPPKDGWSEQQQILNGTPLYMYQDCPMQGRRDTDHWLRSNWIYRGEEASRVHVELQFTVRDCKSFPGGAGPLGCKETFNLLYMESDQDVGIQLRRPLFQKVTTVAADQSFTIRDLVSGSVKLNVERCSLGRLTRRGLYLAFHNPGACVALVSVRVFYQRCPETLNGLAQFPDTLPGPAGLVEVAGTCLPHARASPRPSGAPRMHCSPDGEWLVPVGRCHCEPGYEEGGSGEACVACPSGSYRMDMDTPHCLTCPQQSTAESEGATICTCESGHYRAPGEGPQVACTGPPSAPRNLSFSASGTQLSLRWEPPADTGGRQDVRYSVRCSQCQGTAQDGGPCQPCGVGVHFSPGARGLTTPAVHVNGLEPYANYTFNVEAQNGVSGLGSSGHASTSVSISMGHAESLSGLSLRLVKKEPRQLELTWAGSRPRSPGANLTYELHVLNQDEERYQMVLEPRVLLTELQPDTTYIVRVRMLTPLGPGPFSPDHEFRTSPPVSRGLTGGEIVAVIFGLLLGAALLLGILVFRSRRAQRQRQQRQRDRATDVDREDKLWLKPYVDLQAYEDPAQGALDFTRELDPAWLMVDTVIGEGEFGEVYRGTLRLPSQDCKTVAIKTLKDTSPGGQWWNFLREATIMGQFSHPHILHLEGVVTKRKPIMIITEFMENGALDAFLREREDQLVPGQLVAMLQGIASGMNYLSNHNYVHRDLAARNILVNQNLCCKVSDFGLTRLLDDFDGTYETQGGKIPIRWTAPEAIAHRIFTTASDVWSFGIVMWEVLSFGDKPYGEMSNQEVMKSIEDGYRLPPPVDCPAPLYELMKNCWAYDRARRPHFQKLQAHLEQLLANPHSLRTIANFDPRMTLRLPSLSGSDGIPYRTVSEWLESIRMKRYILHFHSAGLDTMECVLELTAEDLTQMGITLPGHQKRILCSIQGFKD
Chain of LYN (human) (P07948 whole entry, looked up): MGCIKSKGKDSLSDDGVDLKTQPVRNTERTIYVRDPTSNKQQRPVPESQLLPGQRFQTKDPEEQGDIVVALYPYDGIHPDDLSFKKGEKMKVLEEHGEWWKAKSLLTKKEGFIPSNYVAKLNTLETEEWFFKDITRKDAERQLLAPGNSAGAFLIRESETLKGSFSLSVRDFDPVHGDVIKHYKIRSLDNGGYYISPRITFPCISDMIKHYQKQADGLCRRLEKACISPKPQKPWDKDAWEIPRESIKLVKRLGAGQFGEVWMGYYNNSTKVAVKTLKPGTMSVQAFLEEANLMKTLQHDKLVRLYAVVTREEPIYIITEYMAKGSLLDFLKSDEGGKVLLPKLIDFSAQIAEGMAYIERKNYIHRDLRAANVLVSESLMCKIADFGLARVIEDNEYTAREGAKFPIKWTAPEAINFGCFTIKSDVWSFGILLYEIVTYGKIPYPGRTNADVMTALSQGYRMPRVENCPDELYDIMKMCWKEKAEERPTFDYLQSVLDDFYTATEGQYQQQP
Chain of TEC (human) (P42680 whole entry, looked up): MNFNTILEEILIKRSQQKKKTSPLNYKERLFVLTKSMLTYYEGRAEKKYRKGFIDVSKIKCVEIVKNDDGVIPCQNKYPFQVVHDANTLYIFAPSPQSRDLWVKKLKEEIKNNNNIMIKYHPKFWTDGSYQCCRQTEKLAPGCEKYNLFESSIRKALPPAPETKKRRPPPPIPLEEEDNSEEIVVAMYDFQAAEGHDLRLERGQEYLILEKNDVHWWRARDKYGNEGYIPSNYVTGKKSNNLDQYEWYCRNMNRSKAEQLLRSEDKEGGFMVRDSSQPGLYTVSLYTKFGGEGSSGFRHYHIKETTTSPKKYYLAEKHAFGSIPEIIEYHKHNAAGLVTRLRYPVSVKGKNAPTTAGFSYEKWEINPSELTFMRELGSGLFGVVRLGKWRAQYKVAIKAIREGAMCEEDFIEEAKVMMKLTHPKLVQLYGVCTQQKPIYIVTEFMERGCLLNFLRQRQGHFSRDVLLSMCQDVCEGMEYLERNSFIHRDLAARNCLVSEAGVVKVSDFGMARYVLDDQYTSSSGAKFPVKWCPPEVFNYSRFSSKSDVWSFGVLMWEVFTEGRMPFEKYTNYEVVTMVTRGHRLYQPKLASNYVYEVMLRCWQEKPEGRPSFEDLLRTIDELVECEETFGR
Chain of STK32B (human) (Q9NY57 whole entry, looked up): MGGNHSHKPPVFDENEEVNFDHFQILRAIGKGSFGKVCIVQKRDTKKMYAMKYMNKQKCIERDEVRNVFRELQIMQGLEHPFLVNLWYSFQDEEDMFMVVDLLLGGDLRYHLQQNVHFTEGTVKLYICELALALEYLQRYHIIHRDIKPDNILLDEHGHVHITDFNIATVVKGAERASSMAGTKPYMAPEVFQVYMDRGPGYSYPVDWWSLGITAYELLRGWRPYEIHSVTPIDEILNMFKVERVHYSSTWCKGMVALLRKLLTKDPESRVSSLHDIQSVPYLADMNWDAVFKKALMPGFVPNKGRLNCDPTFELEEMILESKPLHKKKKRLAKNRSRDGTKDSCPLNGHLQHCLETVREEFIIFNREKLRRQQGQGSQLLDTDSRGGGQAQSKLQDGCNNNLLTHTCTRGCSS

Molecule `COc1cc(N2CCC(O)CC2)ccc1Nc1ncc2c(n1)N1CCc3cccc(c31)C(=O)N2C` has a kinase still bound, per cent of control [1] of 100%, a kinase still bound, per cent of control (AKT1 (human)) of 100% and a kinase still bound, per cent of control (AURKA (human)) of 23%. The kinase still bound, per cent of control (BMPR1A (human)) was 100%, the kinase still bound, per cent of control (BMX (human)) was 93% and the kinase still bound, per cent of control (CAMK1 (human)) was 78%. It also gave a kinase still bound, per cent of control (CDK17 (human)) of 94%, a kinase still bound, per cent of control (CDK5 (human)) of 86% and a kinase still bound, per cent of control (CHEK2 (human)) of 42%. For the same molecule, the kinase still bound, per cent of control (DDR2 (human)) was 90%, the kinase still bound, per cent of control (EGFR (human)) was 59% and 83% and the kinase still bound, per cent of control [2] was 78%. It also gave a kinase still bound, per cent of control (EPHA1 (human)) of 100%, a kinase still bound, per cent of control (EPHA2 (human)) of 95% and a kinase still bound, per cent of control (FGFR3 (human)) of 100%. It also gave a kinase still bound, per cent of control (FLT4 (human)) of 93%, a kinase still bound, per cent of control (IRAK3 (human)) of 84% and a kinase still bound, per cent of control (LATS2 (human)) of 100%. It also gave a kinase still bound, per cent of control (LYN (human)) of 92%, a kinase still bound, per cent of control (MAP4K1 (human)) of 96% and a kinase still bound, per cent of control (MAPK12 (human)) of 67%. It also gave a kinase still bound, per cent of control (MAPKAPK2 (human)) of 100%, a kinase still bound, per cent of control (MERTK (human)) of 100% and a kinase still bound, per cent of control (NEK9 (human)) of 77%. The kinase still bound, per cent of control (PDGFRA (human)) was 98%, the kinase still bound, per cent of control (PDPK1 (human)) was 100% and the kinase still bound, per cent of control (PIK3CA (human)) was 84%. The kinase still bound, per cent of control (PKMYT1 (human)) was 69%, the kinase still bound, per cent of control (PKN1 (human)) was 100% and the kinase still bound, per cent of control (PRKCE (human)) was 91%. The kinase still bound, per cent of control (PRKCH (human)) was 100%, the kinase still bound, per cent of control (PRKCQ (human)) was 97% and the kinase still bound, per cent of control (PTK6 (human)) was 100%. For the same molecule, the kinase still bound, per cent of control [3] was 93%, the kinase still bound, per cent of control (ROCK2 (human)) was 86% and the kinase still bound, per cent of control (RPS6KA3 KD1 (human)) was 55%. The kinase still bound, per cent of control (RPS6KA5 KD1 (human)) was 59%, the kinase still bound, per cent of control (STK32B (human)) was 100% and the kinase still bound, per cent of control (SYK (human)) was 100%. For the same molecule, the kinase still bound, per cent of control (TEC (human)) was 100%, the kinase still bound, per cent of control (TIE1 (human)) was 94% and the kinase still bound, per cent of control (ZAP70 (human)) was 65%.
Molecule `CN1C(=O)c2ccccc2N(C)c2nc(Nc3ccc(N4CCC(O)CC4)cc3)ncc21` has a kinase still bound, per cent of control [1] of 1.9%, a kinase still bound, per cent of control (AKT1 (human)) of 100% and a kinase still bound, per cent of control (AURKA (human)) of 2.4%. The kinase still bound, per cent of control (BMPR1A (human)) was 61%, the kinase still bound, per cent of control (BMX (human)) was 89% and the kinase still bound, per cent of control (CAMK1 (human)) was 100%. The kinase still bound, per cent of control (CDK17 (human)) was 90%, the kinase still bound, per cent of control (CDK5 (human)) was 100% and the kinase still bound, per cent of control (CHEK2 (human)) was 81%. For the same molecule, the kinase still bound, per cent of control (DDR2 (human)) was 96%, the kinase still bound, per cent of control (EGFR (human)) was 100% and the kinase still bound, per cent of control [2] was 100%. For the same molecule, the kinase still bound, per cent of control (EPHA1 (human)) was 100%, the kinase still bound, per cent of control (EPHA2 (human)) was 99% and the kinase still bound, per cent of control (FGFR3 (human)) was 62%. For the same molecule, the kinase still bound, per cent of control (FLT4 (human)) was 100%, the kinase still bound, per cent of control (IRAK3 (human)) was 82% and the kinase still bound, per cent of control (LATS2 (human)) was 100%. For the same molecule, the kinase still bound, per cent of control (LYN (human)) was 80%, the kinase still bound, per cent of control (MAP4K1 (human)) was 64% and the kinase still bound, per cent of control (MAPK12 (human)) was 100%. The kinase still bound, per cent of control (MAPKAPK2 (human)) was 100%, the kinase still bound, per cent of control (MERTK (human)) was 100% and the kinase still bound, per cent of control (NEK9 (human)) was 100%. The kinase still bound, per cent of control (PDGFRA (human)) was 100%, the kinase still bound, per cent of control (PDPK1 (human)) was 97% and the kinase still bound, per cent of control (PIK3CA (human)) was 98%. It also gave a kinase still bound, per cent of control (PKMYT1 (human)) of 100%, a kinase still bound, per cent of control (PKN1 (human)) of 100% and a kinase still bound, per cent of control (PRKCE (human)) of 99%. For the same molecule, the kinase still bound, per cent of control (PRKCH (human)) was 100%, the kinase still bound, per cent of control (PRKCQ (human)) was 92% and the kinase still bound, per cent of control (PTK6 (human)) was 86%. The kinase still bound, per cent of control [3] was 3%, the kinase still bound, per cent of control (ROCK2 (human)) was 86% and the kinase still bound, per cent of control (RPS6KA3 KD1 (human)) was 85%. It also gave a kinase still bound, per cent of control (RPS6KA5 KD1 (human)) of 100%, a kinase still bound, per cent of control (STK32B (human)) of 100% and a kinase still bound, per cent of control (SYK (human)) of 61%. The kinase still bound, per cent of control (TEC (human)) was 100%, the kinase still bound, per cent of control (TIE1 (human)) was 59% and the kinase still bound, per cent of control (ZAP70 (human)) was 87%.
`CN1CCN(c2ccc(C(=O)Nc3ncc4c(n3)N(C)c3ccccc3C(=O)N4C)cc2)CC1` showed a kinase still bound, per cent of control [1] of 100%, a kinase still bound, per cent of control (AKT1 (human)) of 100% and a kinase still bound, per cent of control (AURKA (human)) of 96%. The kinase still bound, per cent of control (BMPR1A (human)) was 100%, the kinase still bound, per cent of control (BMX (human)) was 100% and the kinase still bound, per cent of control (CAMK1 (human)) was 100%. It also gave a kinase still bound, per cent of control (CDK17 (human)) of 100%, a kinase still bound, per cent of control (CDK5 (human)) of 100% and a kinase still bound, per cent of control (CHEK2 (human)) of 100%. For the same molecule, the kinase still bound, per cent of control (DDR2 (human)) was 100%, the kinase still bound, per cent of control (EGFR (human)) was 100% and the kinase still bound, per cent of control [2] was 100%. For the same molecule, the kinase still bound, per cent of control (EPHA1 (human)) was 100%, the kinase still bound, per cent of control (EPHA2 (human)) was 100% and the kinase still bound, per cent of control (FGFR3 (human)) was 100%. For the same molecule, the kinase still bound, per cent of control (FLT4 (human)) was 100%, the kinase still bound, per cent of control (IRAK3 (human)) was 92% and the kinase still bound, per cent of control (LATS2 (human)) was 100%. It also gave a kinase still bound, per cent of control (LYN (human)) of 94%, a kinase still bound, per cent of control (MAP4K1 (human)) of 98% and a kinase still bound, per cent of control (MAPK12 (human)) of 98%. The kinase still bound, per cent of control (MAPKAPK2 (human)) was 100%, the kinase still bound, per cent of control (MERTK (human)) was 100% and the kinase still bound, per cent of control (NEK9 (human)) was 100%. It also gave a kinase still bound, per cent of control (PDGFRA (human)) of 100%, a kinase still bound, per cent of control (PDPK1 (human)) of 100% and a kinase still bound, per cent of control (PIK3CA (human)) of 100%. The kinase still bound, per cent of control (PKMYT1 (human)) was 93%, the kinase still bound, per cent of control (PKN1 (human)) was 100% and the kinase still bound, per cent of control (PRKCE (human)) was 100%. The kinase still bound, per cent of control (PRKCH (human)) was 95%, the kinase still bound, per cent of control (PRKCQ (human)) was 100% and the kinase still bound, per cent of control (PTK6 (human)) was 100%. The kinase still bound, per cent of control [3] was 100%, the kinase still bound, per cent of control (ROCK2 (human)) was 100% and the kinase still bound, per cent of control (RPS6KA3 KD1 (human)) was 100%. The kinase still bound, per cent of control (RPS6KA5 KD1 (human)) was 87%, the kinase still bound, per cent of control (STK32B (human)) was 100% and the kinase still bound, per cent of control (SYK (human)) was 100%. The kinase still bound, per cent of control (TEC (human)) was 93%, the kinase still bound, per cent of control (TIE1 (human)) was 100% and the kinase still bound, per cent of control (ZAP70 (human)) was 100%.

From the kinase profiling compilation of Christmann-Franck et al. (2016)
